One test has as its target JAK 2 (Homo sapiens, UniProt O60674). Kind of test: Biochemical potency on JAK2, TR-FRET LANCE Ultra kinase assay (examples 1-99). The following applies: ATP at Km (0.7 μM), read-out: JAK2 inhibitory activity (pIC50 class) (converted). On the procedure:
(§1) The objective of this study was to assess the capability of compounds to inhibit all 4 JAK isoforms activity in a cell-free environment. Assay for JAK 1, JAK 2, JAK 3 and TYK2 were performed by Time-resolved fluorescence resonance energy transfer (TR-FRET) technology. It consists in the interaction of two labelled binding partners detected by the energy transfer from an excited donor to an acceptor dye and measurement of light emission by the acceptor dye. LANCE Ultra kinase assay was used. In presence of JAK 1, JAK 2, JAK 3 and TYK2 kinases and ATP (corresponding to Km), the ULight peptide substrate (LANCE Ulight-JAK-1 (Tyr1023) Peptide, Perkin Elmer, TRF0121) is phosphorylated. It is then captured by Eu-anti-phospho-substrate antibody (LANCE Eu-W1024 Anti-phosphotyrosine (PT66), Perkin Elmer, AD0069), which bring the Eu-chelate donor and ULight acceptor dyes into close proximity. Upon excitation at 320 nm, the Eu-chelate transfers its energy to the ULight dye, resulting in a fluorescent light emission at 665 nm.
(§2) Serial dilutions of compounds in pure DMSO are prepared from 10 mM DMSO stock solutions. Compounds were tested in 384-well plate for 11 consecutive 5-fold dilutions starting from 20 μM highest concentration (20 μM-[…]). 200 nL of compound were transferred from mother plate to test plate by using Mosquito (TTP labtech). Assay was performed in 384-well Perkin Elmer test plate in 20 μL assay volume (kinase reaction) and 40 μL total volume (stopping reagent and antibody detection reagents). In 10 μL of substrate solution (peptide+ATP) 30/50/20/10 nM of peptide and 20/0.7/0.2/12 μM of ATP were added for JAK 1, JAK 2, JAK 3 and TYK2 respectively. 10 μL of enzyme solution was added to kinase reaction at these concentrations: 0.15/0.083/0.025/0.144 ng/μL of JAK 1, JAK 2, JAK 3 and TYK2 respectively. After shaking and 1.5 h of incubation at r.t., 20 μL of Stop (10 μL EDTA) and Detection mixture (10 μL Europium-anti-phospho antibody, final: 0.5 nM) were added. Reading was performed after 1 h of incubation on a EnVision 2104 reader (Perkin Elmer).
(§3) Calculation of IC50 data, curves and QC analysis was performed by using Excel tool and GraphPadPrism software, v9. Briefly, individual concentration-effect curves are generated by plotting the logarithm of the tested concentration of tested compounds (X) vs. corresponding percent inhibition values (Y) using least squares (ordinary) fit. Best fit IC50 values are calculated using Log(inhibitor) vs. normalized response—Variable slope equation, where Y=100/(1+10^((Log IC50−X)*HillSlope)). QC criteria parameters (Z′, S:B, R2, HillSlope) were checked for every IC50 curve. Calculation of IC50 data, curves and QC analysis were made using Excel tools and GraphPadPrism software. QC criteria parameters: Z′≥0.5, Hill Slope range 0.5 to 5, S:B>2.

For a further test, the target named is T1, JAK 3 (Homo sapiens, UniProt P52333).
T1 sequence (P52333 1-1124): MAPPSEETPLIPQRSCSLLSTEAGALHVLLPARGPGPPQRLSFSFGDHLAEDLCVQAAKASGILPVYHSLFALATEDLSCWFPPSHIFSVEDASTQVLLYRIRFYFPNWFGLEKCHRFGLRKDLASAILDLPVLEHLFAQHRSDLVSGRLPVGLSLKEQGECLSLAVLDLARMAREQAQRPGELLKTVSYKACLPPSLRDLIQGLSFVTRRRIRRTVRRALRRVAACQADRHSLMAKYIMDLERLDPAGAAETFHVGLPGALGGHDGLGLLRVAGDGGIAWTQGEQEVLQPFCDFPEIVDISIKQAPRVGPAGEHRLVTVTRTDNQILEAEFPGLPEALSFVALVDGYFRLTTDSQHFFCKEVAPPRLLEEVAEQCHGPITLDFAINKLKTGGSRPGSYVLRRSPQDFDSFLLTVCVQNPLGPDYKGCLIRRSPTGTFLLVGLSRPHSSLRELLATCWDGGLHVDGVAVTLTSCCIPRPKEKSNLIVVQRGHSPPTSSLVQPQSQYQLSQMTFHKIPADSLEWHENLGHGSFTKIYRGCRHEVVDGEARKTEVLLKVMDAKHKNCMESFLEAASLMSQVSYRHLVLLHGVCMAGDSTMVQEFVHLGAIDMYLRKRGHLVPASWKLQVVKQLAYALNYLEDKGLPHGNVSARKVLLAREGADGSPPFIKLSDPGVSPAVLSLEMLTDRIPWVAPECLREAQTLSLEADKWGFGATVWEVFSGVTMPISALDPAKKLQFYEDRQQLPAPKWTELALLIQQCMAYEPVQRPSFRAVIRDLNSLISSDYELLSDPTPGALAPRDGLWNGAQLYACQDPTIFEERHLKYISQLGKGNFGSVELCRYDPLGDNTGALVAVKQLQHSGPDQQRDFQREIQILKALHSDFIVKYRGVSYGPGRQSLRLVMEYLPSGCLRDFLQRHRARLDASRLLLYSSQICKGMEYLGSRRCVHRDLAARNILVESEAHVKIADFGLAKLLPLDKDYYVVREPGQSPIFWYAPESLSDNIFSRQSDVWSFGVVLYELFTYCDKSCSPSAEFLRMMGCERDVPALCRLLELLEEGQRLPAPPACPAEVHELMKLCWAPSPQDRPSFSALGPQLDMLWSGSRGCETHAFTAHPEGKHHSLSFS
As to the kind of experiment: Biochemical potency on JAK3, TR-FRET LANCE Ultra kinase assay (examples 1-99). The following applies: ATP at Km (0.2 μM), read-out: JAK3 inhibitory activity (pIC50 class) (converted). Here is the method:
as §1, §2, §3
For orientation: TR-FRET usually uses a lanthanide donor and a delayed reading to cut background.

In the next test the target is JAK 1 (Homo sapiens, UniProt P23458). Kind of test: Biochemical potency on JAK1, TR-FRET LANCE Ultra kinase assay (examples 1-99). The following applies: ATP at Km (20 μM), read-out: JAK1 inhibitory activity (pIC50 class) (converted). Here is the method:
as §1, §2, §3

The next test deals with TYK2 (Homo sapiens, UniProt P29597). As to the kind of experiment: Biochemical potency on Tyk2, TR-FRET LANCE Ultra kinase assay (examples 1-99). The settings on record: ATP at Km (12 μM), read-out: Tyk2 inhibitory activity (pIC50 class) (converted). On the procedure: as §1, §2, §3
TYK2, sequence (P29597 whole entry): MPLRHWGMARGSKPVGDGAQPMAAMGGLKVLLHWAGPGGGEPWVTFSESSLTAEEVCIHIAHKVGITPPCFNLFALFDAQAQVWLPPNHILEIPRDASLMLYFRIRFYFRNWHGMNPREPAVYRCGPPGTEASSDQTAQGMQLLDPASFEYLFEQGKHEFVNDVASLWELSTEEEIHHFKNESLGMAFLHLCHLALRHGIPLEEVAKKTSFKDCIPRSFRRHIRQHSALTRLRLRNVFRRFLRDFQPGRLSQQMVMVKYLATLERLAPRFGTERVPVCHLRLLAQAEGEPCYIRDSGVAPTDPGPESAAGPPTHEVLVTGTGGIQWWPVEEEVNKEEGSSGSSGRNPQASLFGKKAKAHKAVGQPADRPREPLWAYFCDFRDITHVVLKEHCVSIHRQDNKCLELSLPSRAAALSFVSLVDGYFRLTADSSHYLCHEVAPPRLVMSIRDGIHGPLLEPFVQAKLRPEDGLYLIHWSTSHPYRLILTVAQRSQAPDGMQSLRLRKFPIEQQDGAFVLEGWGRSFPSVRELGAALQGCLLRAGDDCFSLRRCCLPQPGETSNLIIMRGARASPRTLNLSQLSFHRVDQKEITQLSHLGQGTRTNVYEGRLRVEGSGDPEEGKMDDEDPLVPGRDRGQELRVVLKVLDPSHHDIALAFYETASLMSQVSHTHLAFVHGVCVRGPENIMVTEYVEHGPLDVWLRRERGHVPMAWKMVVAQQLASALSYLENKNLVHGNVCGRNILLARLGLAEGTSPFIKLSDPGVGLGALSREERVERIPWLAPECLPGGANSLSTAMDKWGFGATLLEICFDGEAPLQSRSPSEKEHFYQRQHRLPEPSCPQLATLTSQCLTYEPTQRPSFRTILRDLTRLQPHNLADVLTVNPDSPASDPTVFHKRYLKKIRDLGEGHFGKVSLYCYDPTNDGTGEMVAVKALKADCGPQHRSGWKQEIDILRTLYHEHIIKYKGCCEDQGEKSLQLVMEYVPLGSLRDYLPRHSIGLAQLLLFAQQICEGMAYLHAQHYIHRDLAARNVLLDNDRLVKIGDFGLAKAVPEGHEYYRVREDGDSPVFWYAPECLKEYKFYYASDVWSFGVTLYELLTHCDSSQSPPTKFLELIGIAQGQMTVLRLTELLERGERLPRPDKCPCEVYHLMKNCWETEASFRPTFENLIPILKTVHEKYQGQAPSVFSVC

JAK 2, sequence (O60674 whole entry, canonical isoform): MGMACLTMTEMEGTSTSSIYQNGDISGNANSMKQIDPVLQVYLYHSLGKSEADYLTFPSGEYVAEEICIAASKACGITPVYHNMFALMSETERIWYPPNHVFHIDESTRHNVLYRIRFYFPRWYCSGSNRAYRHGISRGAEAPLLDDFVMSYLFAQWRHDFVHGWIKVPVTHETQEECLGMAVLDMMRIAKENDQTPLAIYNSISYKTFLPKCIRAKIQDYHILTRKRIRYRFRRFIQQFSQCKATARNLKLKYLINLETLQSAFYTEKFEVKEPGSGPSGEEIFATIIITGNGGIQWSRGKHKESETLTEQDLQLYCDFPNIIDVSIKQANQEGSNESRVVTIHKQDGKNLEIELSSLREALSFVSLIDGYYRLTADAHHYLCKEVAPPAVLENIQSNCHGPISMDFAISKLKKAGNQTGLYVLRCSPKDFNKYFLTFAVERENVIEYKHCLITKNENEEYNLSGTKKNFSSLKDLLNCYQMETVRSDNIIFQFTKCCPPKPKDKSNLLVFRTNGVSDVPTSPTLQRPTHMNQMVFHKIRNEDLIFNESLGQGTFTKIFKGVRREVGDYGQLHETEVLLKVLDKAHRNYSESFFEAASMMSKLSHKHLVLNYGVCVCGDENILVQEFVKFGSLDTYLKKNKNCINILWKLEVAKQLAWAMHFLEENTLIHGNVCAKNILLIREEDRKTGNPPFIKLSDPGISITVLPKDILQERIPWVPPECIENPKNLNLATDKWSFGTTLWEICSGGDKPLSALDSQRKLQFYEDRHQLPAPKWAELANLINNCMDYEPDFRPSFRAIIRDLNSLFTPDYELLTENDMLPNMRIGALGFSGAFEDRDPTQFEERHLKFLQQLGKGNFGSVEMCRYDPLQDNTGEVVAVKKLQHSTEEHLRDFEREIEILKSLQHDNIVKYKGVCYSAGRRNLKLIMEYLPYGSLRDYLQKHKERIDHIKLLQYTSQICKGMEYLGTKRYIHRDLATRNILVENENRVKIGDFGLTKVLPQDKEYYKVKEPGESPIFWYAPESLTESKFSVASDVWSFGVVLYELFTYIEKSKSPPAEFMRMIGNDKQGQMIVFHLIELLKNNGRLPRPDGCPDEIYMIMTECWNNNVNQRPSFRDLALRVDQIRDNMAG
JAK 1, sequence (P23458 whole entry): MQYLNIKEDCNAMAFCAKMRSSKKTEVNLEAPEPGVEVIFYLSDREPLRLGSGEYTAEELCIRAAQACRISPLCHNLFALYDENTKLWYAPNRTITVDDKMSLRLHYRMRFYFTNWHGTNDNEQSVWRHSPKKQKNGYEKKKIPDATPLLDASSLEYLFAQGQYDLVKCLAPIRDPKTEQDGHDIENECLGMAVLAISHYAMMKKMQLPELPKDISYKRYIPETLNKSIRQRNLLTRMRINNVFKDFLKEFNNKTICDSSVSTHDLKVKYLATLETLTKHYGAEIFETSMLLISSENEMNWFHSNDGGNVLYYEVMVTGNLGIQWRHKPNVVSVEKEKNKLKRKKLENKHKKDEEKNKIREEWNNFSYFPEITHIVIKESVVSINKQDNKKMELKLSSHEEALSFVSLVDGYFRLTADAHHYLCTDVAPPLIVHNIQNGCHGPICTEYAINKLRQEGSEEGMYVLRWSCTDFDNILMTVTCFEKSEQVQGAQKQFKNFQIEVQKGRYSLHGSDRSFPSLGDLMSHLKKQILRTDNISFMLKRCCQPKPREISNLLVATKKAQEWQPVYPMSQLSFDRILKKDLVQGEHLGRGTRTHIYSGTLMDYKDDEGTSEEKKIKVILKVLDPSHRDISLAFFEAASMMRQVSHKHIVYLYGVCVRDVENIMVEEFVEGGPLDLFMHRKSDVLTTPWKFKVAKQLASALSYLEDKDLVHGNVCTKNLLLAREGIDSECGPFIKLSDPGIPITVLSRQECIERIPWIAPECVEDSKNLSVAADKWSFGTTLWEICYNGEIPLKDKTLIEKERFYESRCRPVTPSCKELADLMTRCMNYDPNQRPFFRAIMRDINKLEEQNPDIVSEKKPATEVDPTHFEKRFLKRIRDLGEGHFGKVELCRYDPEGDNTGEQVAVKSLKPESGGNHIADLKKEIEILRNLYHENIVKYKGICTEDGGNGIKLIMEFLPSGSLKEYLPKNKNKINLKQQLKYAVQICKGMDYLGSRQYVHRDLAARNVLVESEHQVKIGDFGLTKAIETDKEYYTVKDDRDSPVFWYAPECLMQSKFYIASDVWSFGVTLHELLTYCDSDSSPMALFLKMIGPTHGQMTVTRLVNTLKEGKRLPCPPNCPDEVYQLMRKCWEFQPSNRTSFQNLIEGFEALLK

In the case of `CNCC(=O)Nc1nn(-c2cc(Cl)ccc2OC)c2cc(-c3cnn4cccnc34)ncc12` [Example 87, N-(1-(5-chloro-2-methoxyphenyl)-6-(pyrazolo[1,5-a]pyrimidin-3-yl)-1H-pyrazolo[4,3-c]pyridin-3-yl)-2-(methylamino)acetamide], the IC50 is no more than 5.01 nM on JAK 2, 5.01 to 50.1 nM on JAK 3, 5.01 to 50.1 nM on JAK 1 and 5.01 to 50.1 nM on TYK2.

Regarding `Cc1nn(-c2cc(S(=O)(=O)CCO)ccc2OC(F)F)c2cc(-c3cnn4cccnc34)ncc12` [Example 22, 2-((4-(difluoromethoxy)-3-(3-methyl-6-(pyrazolo[1,5-a]pyrimidin-3-yl)-1H-pyrazolo[4,3-c]pyridin-1-yl)phenyl)sulfonyl)ethan-1-ol], the IC50 at JAK 2 was no more than 5.01 nM; at JAK 3, no more than 5.01 nM; on JAK 1 it was 5.01 to 50.1 nM; on TYK2 it was 5.01 to 50.1 nM.

Take `CNC(=O)CN(C)[C@H]1C[C@H](NC(=O)c2nn(-c3cc(Cl)ccc3OC)c3cc(-c4cnn5cccnc45)ncc23)C1` [Example 78, 1-(5-chloro-2-methoxyphenyl)-N-((1r,3r)-3-(methyl(2-(methylamino)-2-oxoethyl)amino)cyclobutyl)-6-(pyrazolo[1,5-a]pyrimidin-3-yl)-1H-pyrazolo[4,3-c]pyridine-3-carboxamide]: the IC50 at JAK 2 was 5.01 to 50.1 nM; on JAK 3 it was 5.01 to 50.1 nM; on JAK 1, 5.01 to 50.1 nM; on TYK2, greater than 50.1 nM.

Regarding `COc1ccc(Cl)cc1-n1ncc2c(O)nc(-c3cnn4cccnc34)cc21` [Example 57, 1-(5-chloro-2-methoxyphenyl)-6-(pyrazolo[1,5-a]pyrimidin-3-yl)-1H-pyrazolo[4,3-c]pyridin-4-ol], the IC50 at JAK 2 is no more than 5.01 nM; on JAK 3, 5.01 to 50.1 nM; at JAK 1, 5.01 to 50.1 nM; on TYK2, 5.01 to 50.1 nM.

For the compound `COc1ccc(Cl)cc1-n1nc(C(=O)N[C@H]2C[C@@H](O)C2)c2cnc(-c3cnn4cccnc34)cc21` [Example 34, 1-(5-chloro-2-methoxyphenyl)-N-((1s,3s)-3-hydroxycyclobutyl)-6-(pyrazolo[1,5-a]pyrimidin-3-yl)-1H-pyrazolo[4,3-c]pyridine-3-carboxamide], the IC50 at JAK 2 was 5.01 to 50.1 nM; on JAK 3, 5.01 to 50.1 nM; at JAK 1, 5.01 to 50.1 nM; at TYK2, greater than 50.1 nM.

In the case of `COc1ccc(F)cc1-n1nc(C)c2cnc(Nc3ncc[nH]c3=O)cc21` [Example 90, 3-((1-(5-Fluoro-2-methoxyphenyl)-3-methyl-1H-pyrazolo[4,3-c]pyridin-6-yl)amino)pyrazin-2(1H)-one], the IC50 at JAK 2 was no more than 5.01 nM; on JAK 3 it was no more than 5.01 nM; on JAK 1, 5.01 to 50.1 nM; at TYK2, 5.01 to 50.1 nM.

Consider `COCCSc1ccc(OC(F)F)c(-n2nc(C)c3cnc(Nc4ncc[nH]c4=O)cc32)c1` [Example 93, 3-((1-(2-(difluoromethoxy)-5-((2-methoxyethyl)thio)phenyl)-3-methyl-1H-pyrazolo[4,3-c]pyridin-6-yl)amino)pyrazin-2(1H)-one], for which the IC50 is no more than 5.01 nM on JAK 2, no more than 5.01 nM on JAK 3, 5.01 to 50.1 nM on JAK 1 and 5.01 to 50.1 nM at TYK2.

For the compound `COc1ccc(S(=O)(=O)NCCO)cc1-n1nc(C)c2cnc(-c3cnn4cccnc34)cc21` [Example 15, N-(2-hydroxyethyl)-4-methoxy-3-(3-methyl-6-(pyrazolo[1,5-a]pyrimidin-3-yl)-1H-pyrazolo[4,3-c]pyridin-1-yl)benzenesulfonamide], the IC50 is no more than 5.01 nM at JAK 2, 5.01 to 50.1 nM on JAK 3, 5.01 to 50.1 nM at JAK 1 and greater than 50.1 nM on TYK2.

Turning to `COc1ccc(Cl)cc1-n1nc(N2CC(CO)C2)c2cnc(-c3cnn4cccnc34)cc21` [Example 49, (1-(1-(5-chloro-2-methoxyphenyl)-6-(pyrazolo[1,5-a]pyrimidin-3-yl)-1H-pyrazolo[4,3-c]pyridin-3-yl)azetidin-3-yl)methanol], the IC50 at JAK 2, at JAK 3, at JAK 1 and at TYK2 was 5.01 to 50.1 nM throughout.

In the case of `Cc1nn(-c2cc(Cl)ccc2CO)c2cc(-c3cnn4cccnc34)ncc12` [Example 62, (4-chloro-2-(3-methyl-6-(pyrazolo[1,5-a]pyrimidin-3-yl)-1H-pyrazolo[4,3-c]pyridin-1-yl)phenyl)methanol], the IC50 was 5.01 to 50.1 nM at JAK 2, 5.01 to 50.1 nM on JAK 3, greater than 50.1 nM on JAK 1 and greater than 50.1 nM on TYK2.

As for `CN(C)[C@H]1C[C@@H](NC(=O)c2nn(-c3cc(Cl)ccc3OC(F)F)c3cc(-c4cnn5cccnc45)ncc23)C1` [Example 36, 1-(5-chloro-2-(difluoromethoxy)phenyl)-N-((1s,3s)-3-(dimethylamino)cyclobutyl)-6-(pyrazolo[1,5-a]pyrimidin-3-yl)-1H-pyrazolo[4,3-c]pyridine-3-carboxamide], the IC50 is 5.01 to 50.1 nM at JAK 2, 5.01 to 50.1 nM on JAK 3, 5.01 to 50.1 nM on JAK 1 and greater than 50.1 nM at TYK2.

Take `COc1ccc(S(=O)(=O)NCCN2CCOCC2)cc1-n1nc(C)c2cnc(-c3cnn4cccnc34)cc21` [Example 19, 4-methoxy-3-(3-methyl-6-(pyrazolo[1,5-a]pyrimidin-3-yl)-1H-pyrazolo[4,3-c]pyridin-1-yl)-N-(2-morpholinoethyl)benzenesulfonamide]: the IC50 at JAK 2 was 5.01 to 50.1 nM; on JAK 3, greater than 50.1 nM; on JAK 1, 5.01 to 50.1 nM; at TYK2, greater than 50.1 nM.

Turning to `COc1ccc(C(F)F)cc1-n1nc(C)c2cnc(-c3cnn4cccnc34)cc21` [Example 3, 1-(5-(difluoromethyl)-2-methoxyphenyl)-3-methyl-6-(pyrazolo[1,5-a]pyrimidin-3-yl)-1H-pyrazolo[4,3-c]pyridine], the IC50 on JAK 2 was no more than 5.01 nM; on JAK 3 it was 5.01 to 50.1 nM; at JAK 1 it was 5.01 to 50.1 nM; on TYK2 it was 5.01 to 50.1 nM.

The values above are taken from patent US20240279240A1, “HETEROCYCLIC DERIVATIVES AS JANUS KINASE INHIBITORS” (CHIESI FARMACEUTICI S.P.A., priority 2021, published 2024).
